Compound | melting point [°C]
Cn1c(C(F)(F)F)cc(F)c(-c2ccc(Cl)cc2)c1=O | 120 to 122
Nc1c(-c2ccc(I)cc2)nc2ccc(Cl)cc2c1C(=O)O | 243 to 245
CN(C)CCn1c(=O)c2cc(N)ccc2c2cnc3cc4c(cc3c21)OCO4 | 245 to 246
O=C1N(C(c2ccccc2)c2ccccc2)c2c(F)cccc2C12COc1cc3c(cc12)CCO3 (centres undefined) | 183 to 184
O=c1[nH]ncc2[nH]c(-c3ccc(OC(F)F)c(OCC4CC4)c3)c(Cl)c12 | 258 to 260
Cn1ncnc1COc1nn2c(-c3cccnc3)nncc2c1-c1ccccc1F | 164 to 166
COC(=O)C(C)=CC=P(c1ccccc1)(c1ccccc1)c1ccccc1 | 145 to 150
COc1cc(C)cc(OC)c1NC(=O)CC(C)C | 139
CCc1cc(=O)cc(CC)[nH]1 | 103 to 110
CC(C)n1c(C=O)c(-c2ccc(F)cc2)c(-c2ccccc2)c1C(=O)NCc1ccc(F)cc1 | 171 to 172
Cc1ccc(-c2c(C#N)nn(-c3c(Cl)cc(C(F)(F)F)cc3Cl)c2N)cc1 | 243 to 244
COc1cc2sc(CC(C)(Oc3ccc(C(C)C)cc3)C(=O)O)cc2c(Cl)c1OC (centres undefined) | 105 to 108
O=c1[nH]c(=O)n(C2CC(O)C(CO)O2)cc1-c1ccccn1 (centres undefined) | 201 to 203
Cc1cccc(OCC2=NCCN2C(=O)Oc2cccc(C)c2C)c1C | 126 to 127
CNC(=O)c1cccc(NC(=O)COc2cccc3ccccc23)c1 | 194
CNc1ncn(-c2c(C)cccc2Br)c(=O)n1 | 238 to 240
CCNC(=O)c1ccc(N2CCN(Cc3ccc4c(c3)NC(=O)C(C)O4)CC2)cc1 (centres undefined) | 250 to 256
O=C(O)CCCC=C(c1ccccc1)c1ccccc1 | 111 to 112
Cc1ccc(F)cc1C(=O)Nc1ccc(C(=O)O)cc1 | 272 to 275
COc1ccc(S(=O)(=O)C(CCCc2ccccc2)(CCCc2ccccc2)C(=O)O)cc1 | 118 to 120
CC(Oc1ccc(F)cc1F)(C(=O)Nc1nccs1)c1ccc(S(C)(=O)=O)cc1 (centres undefined) | 89 to 90
COC(=O)CCc1cc(C)on1 | 54 to 55
COc1c(Br)cc2c3c(cccc13)C(=O)N(O)C2=O | 223 to 227
O=C1NCN2c3ccc([N+](=O)[O-])cc3Sc3cccc1c32 | 205 to 208
C=CCC1CC(NC(=O)C(F)(F)F)C(OC(=O)c2ccc([N+](=O)[O-])cc2)C(C)O1 (centres undefined) | 138 to 139

Compound | melting point [°C]
COC(=O)C(C)=CC1C(C(=O)OC(C)(C)N2C(=O)C=CC2=O)C1(C)C (centres undefined) | 98.7
COc1ccc2c(C(=O)Nc3ccc(F)c(C(F)(F)F)c3)nsc2c1 | 157
Cc1nc(N2CCCC(Cc3cccc(F)c3)C2=O)sc1C(=O)NCc1ccccc1 (centres undefined) | 170 to 171
COc1ccc(-n2nc(Sc3ccc(Cl)cc3)c(C)c(C#N)c2=O)cc1 | 146 to 148
O=C(O)CCCCOc1ccccc1Cl | 71 to 72
Cc1cncc(-c2ccc(OC3SCC(O)C(O)C3O)cn2)c1 (centres undefined) | 165 to 166
CC(Oc1ccccc1[N+](=O)[O-])C(=O)NCCO[N+](=O)[O-] (centres undefined) | 65 to 67
COCOc1ccc(C2(c3cccc(-c4cccnc4F)c3)N=C(N)N3CCCN=C32)cc1 (centres undefined) | 95 to 105
O=C(c1ccc2nonc2c1)N1Cc2cccnc2Nc2ccccc21 | 193 to 194
CCCCN(CC)CC(=O)OC1CC2(C)C(C(C)=O)CCC2C2CCC3CC(O)CCC3(C)C12 (centres undefined) | 111 to 112
CN(C)c1ccc(N(C)C(=O)Cn2c(-c3ccc(Cl)cc3)nc3cccnc32)cc1 | 152 to 155
CCOc1sc(C)nc1S(N)(=O)=O | 118 to 120
Nc1ccc(CCN2CCC(Nc3nc4ccccc4n3Cc3ccc(F)cc3)CC2)cc1 | 195
CC(C)c1cn2ccccc2c1S(=O)(=O)c1ccc(OCCCBr)cc1 | 133
CC(C)[C@@H](NC(=O)OC(C)(C)C)[C@H]1CCn2c(cc3ccccc32)C1 | 122 to 124
Cc1cnc(Oc2cccc(C(F)(F)F)c2)c(C(=O)O)c1 | 173 to 175
O=C1CCn2c(nc3ccccc32)N1 | > 260
Cc1cc(N)cc(C)c1Oc1ccc(O)c(Cc2ccc(F)cc2)c1 | 179 to 182
Cc1c(NC(=O)c2ccc(-c3ccc(F)cc3)cc2)ccc2cc(CN3CCCC3CC(C)C)cnc12 (centres undefined) | 193 to 196
COc1ccc2oc(Cc3cc(C(F)(F)F)cc(C(F)(F)F)c3)c(CC#N)c2c1 | 112
COc1ccccc1CN1N=C(c2ccc(OC)c(OC)c2)[C@@H]2CCCC[C@@H]2C1=O (relative stereo) | 96 to 99
O=c1n(CCCF)nnn1-c1ccc(OCc2ccc(F)cc2)cc1F | 86 to 88
CCCCNC(=O)Oc1ccc(Oc2ccccc2)cc1C(=O)OC | 53 to 56
Cc1nc(-c2ccc(=O)n(C(C)C)n2)c(-c2ccccc2)nc1O | > 250
